Reference: patent US11208415B2, “Substituted indole Mcl-1 inhibitors” (Vanderbilt University, priority 2014, dated 2021)

Molecular target: recombinant Mcl-1 (residues 172-327) (Homo sapiens (Human), UniProt Q07820)
Assay: Fluorescence polarization anisotropy competition assay (FITC-Bak or FITC-Bim BH3 peptide), Mcl-1
Assay type: binding
Details: FITC-labeled BH3 peptide (Bak or Bim) displacement; Ki converted from IC50; printed as range bins; read-out: Ki for Inhibition of Mcl-1

recombinant Mcl-1 (residues 172-327), sequence (Q07820 172-327): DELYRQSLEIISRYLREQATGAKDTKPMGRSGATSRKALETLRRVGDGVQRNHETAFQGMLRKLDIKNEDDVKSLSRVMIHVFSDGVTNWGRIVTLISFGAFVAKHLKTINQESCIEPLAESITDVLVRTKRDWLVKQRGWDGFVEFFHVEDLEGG

Q: How did the Ki turn out when `Cc1cc(OCCCc2c3n(c4c(-c5c(C)nn(C)c5C)c(Cl)ccc24)CCCN(c2cc(C(=O)O)c4cn(C)nc4c2)C3=O)cc(C)c1Cl` [Example I-366, 6-(8-chloro-1-(3-(4-chloro-3,5-dimethylphenoxy)propyl)-1-oxo-7-(1,3,5-trimethyl-1H-pyrazol-4-yl)-4,5-dihydro-1H-[1,4]diazepino[1,2-a]indol-2(3H)-yl)-2-methyl-2H-indazole-4-carboxylic acid] was run?
A: < 50 nM
